For 71 compounds, AC50 results are on record in PubChem BioAssay AID449750 (Broad Institute, 2010).

The test is described as follows: non-covalent RecA intein splicing inhibitors, dose response, biochemical, cell-free, fluorescence, secondary screen (AID 449750).

Activity calls are given as the source filed them. The rule behind the calls is not given here. Where only a bound is given, the exact number is not on record here.

Consider `Cc1c(C#N)c(NC(=O)CCl)n(Cc2ccc(F)cc2)c1C`, for which the AC50 is 3.69 µM.
`COC(=O)C(C#N)C(c1cccnc1)c1c(C)[nH][nH]c1=O` (stereo unspecified): the AC50 is > 38 µM (inactive).
For the compound `CCN1C(=O)c2c(C)nc3ccccc3c2C1=O`, the AC50 was > 38 µM (inactive).
The figure for `COC(=O)CC1=NN(c2nc(C)cc(C)n2)C(=O)C1` is > 38 µM (inactive).
For `O=C(CCN1C(=O)/C(=C/c2cccs2)SC1=S)Nc1cccc(O)c1`, the AC50 is > 38 µM (inactive).
For the compound `Cc1cccc(NC2=C(Cl)C(=O)OC2OC(=O)c2ccco2)c1` (stereo unspecified), the AC50 was > 38 µM (inactive).
Take `O=C(c1c[nH]c(C(=O)C(Cl)(Cl)Cl)c1)c1ccccc1Cl`: the AC50 was 24.9 µM.
Take `CC(C)CC1C(C#N)=C(N)Oc2n[nH]c(-c3ccccc3)c21` (stereo unspecified): the AC50 is 23.1 µM.
The figure for `Cc1cccc(Cn2ncc(Cl)c(Cl)c2=O)c1` is 18 µM; for `CC1(C)Nc2ccc(O)cc2-c2c1ssc2=S` it is > 38 µM (inactive); for `O=C(CN1C(=O)S/C(=C\C=C\c2ccccc2)C1=O)Nc1ccc(C(=O)O)cc1` it is 29.6 µM.
`CCn1nc(/C=C/c2ccccc2)nc2c(=O)n(C)c(=O)nc1-2`: the AC50 is 0.0666 µM.
The result for `Brc1ccc(Cn2c(-c3ccc(Br)o3)nc3ccccc32)o1` reads 23.2 µM.
Turning to `N#CC1=C(N)C(C#N)(C#N)C(c2cccnc2)C2CN(C(=O)OCc3ccccc3)CC=C12` (stereo unspecified), the AC50 was > 38 µM (inactive).
Take `COc1cc(C(c2c(C)[nH][nH]c2=O)c2c(C)[nH][nH]c2=O)cc(Br)c1OC`: the AC50 is 13.9 µM.
Turning to `CC1=NN(c2ccccc2)C(=O)/C1=C\c1cn(C)c2ccccc12`, the AC50 was > 38 µM (inactive).
Turning to `CC1=NN(c2nc(-c3ccccc3)cs2)C(=O)C1`, the AC50 is 18.8 µM.
In the case of `CS(=O)(=O)c1nc(-c2ccccc2)cc(C(F)(F)F)n1`, the AC50 was > 38 µM (inactive).
As for `Cc1ccc(N2C(=O)NC(=O)/C(=C/c3ccc(OC(=O)c4cccs4)cc3)C2=O)cc1`, the AC50 is 5.9 µM.
Turning to `O=C1CCCC(O)=C1C(C#Cc1ccccc1)C1=C(O)CCCC1=O`, the AC50 was 14.7 µM.
Take `c1ccc(CNc2nc(NCc3ccccc3)c3ccccc3n2)cc1`: the AC50 was 7.61 µM.
In the case of `CC(C)CCn1c(N)c(C(=O)NCc2cccs2)c2nc3ccccc3nc21`, the AC50 is > 38 µM (inactive).
The result for `N#CC1=C(N)Oc2n[nH]c(-c3cccs3)c2C1c1ccccc1C(=O)O` (stereo unspecified) reads 20.9 µM; that for `COc1cc(C(=O)NCC(=O)N/N=C/c2cccc(OC(=O)c3ccco3)c2)cc(OC)c1OC`, > 38 µM (inactive).
As to `Cc1nc2ccccc2c2c1C(=O)N(c1cccc(C(=O)O)c1)C2=O`, the AC50 was > 38 µM (inactive).
Turning to `O=C(Nc1cccc(OC(=O)c2ccco2)c1)c1ccco1`, the AC50 was > 38 µM (inactive).
Consider `O=C(NC(=C(Cl)Cl)S(=O)(=O)c1ccc(Cl)cc1)c1ccccc1`, for which the AC50 is 4.78 µM.
With `COC(=O)c1nc(-c2ccc3c(n2)C(=O)C(N)=C(OC)C3=O)c(N)c(-c2ccc(OC)c(OC)c2O)c1C`, the AC50 was 0.763 µM.
`Cc1cc(C(=O)c2ccc(Cl)cc2)c(NC(=O)CCl)s1`: the AC50 is 1.19 µM.
`CCC(C)[C@H](NC(=O)NC1CCN(Cc2ccccc2)CC1)C(=O)OC` (stereo partly specified): the AC50 is 5.82 µM.
The result for `CC1=NN(c2ccc(Cl)cc2)C(=O)C1C(c1cccc(O)c1)c1c(C)[nH]n(-c2ccc(Cl)cc2)c1=O` (stereo unspecified) reads 7.91 µM.
For the compound `C=CCOC(=O)C1=C(C)NC(=O)NC1c1ccc(OC(=O)c2ccco2)c(OC)c1` (stereo unspecified), the AC50 is > 38 µM (inactive).
The figure for `COc1ccccc1-c1cc(C(F)(F)F)nc(S(=O)(=O)CCCC(=O)N2CCOCC2)n1` is 13.6 µM; for `Nc1nc(-c2ccco2)nn1C(=O)c1ccc(Cl)cc1` it is > 38 µM (inactive); for `CCOC(=O)c1c(C)oc2c1c(C=NCCC(=O)O)c(O)c1ccccc12` it is 22.1 µM.
Turning to `CCCCCc1c2c(cc(O)c1C(=O)O)OC(=O)c1c(cc(OC)cc1C(=O)CCCC)O2`, the AC50 was 8.72 µM.
The figure for `COc1ccc(C(=O)N/N=C\c2coc3ccc(Cl)cc3c2=O)cc1` is > 38 µM (inactive); for `Cc1nn(Cc2ccccc2)c2c1C(c1cccnc1)C(C#N)=C(N)O2` (stereo unspecified) it is > 38 µM (inactive); for `COc1ccc(C(N)c2nccc3cc(OC)c(OC)cc23)cc1OC` (stereo unspecified) it is > 38 µM (inactive).
Regarding `CC1=NNC(=O)/C1=C\c1cn(-c2ccccc2)nc1-c1cccs1`, the AC50 is 9.64 µM.
For the compound `Fc1ccc(Sc2nc(-c3ccccc3)nnc2C(F)(F)F)cc1`, the AC50 is > 38 µM (inactive).
The figure for `COc1ccc(N2C(=O)C(Cl)=C(N3CCN(Cc4ccccc4)CC3)C2=O)cc1` is > 38 µM (inactive).
For the compound `O=C(Nc1ccccc1)c1nnsc1S(=O)(=O)c1ccc(Cl)cc1`, the AC50 was > 38 µM (inactive).
For the compound `COc1cc(/C=C2\C(=O)N(c3ccc(NC(C)=O)cc3)N=C2c2ccccc2)ccc1O`, the AC50 was > 38 µM (inactive).
The figure for `NC(=O)c1c(-c2cccs2)csc1N` is > 38 µM (inactive); for `CN1CCN(c2ccc([N+](=O)[O-])c3no[n+]([O-])c23)CC1` it is > 38 µM (inactive).
The result for `CCOc1ccc(/C=C2\SC(=S)N(CCC(=O)Nc3ccccc3C(=O)O)C2=O)cc1` reads 18.3 µM; that for `CCc1ccc(S(=O)(=O)/N=C2\C=C(Nc3cccc(C(=O)O)c3)C(=O)c3ccccc32)cc1`, 0.353 µM.
On to `O=C(CSc1nc2ccccc2nc1SCC(=O)N1CCOCC1)N1CCOCC1`, for which the AC50 is > 38 µM (inactive).
On to `CN(CC(=O)Nc1ccc(N2CCOCC2)cc1)CC(=O)Nc1cccc(C#N)c1`, for which the AC50 was > 38 µM (inactive).
For `Cc1cccc(CS(=O)(=O)c2ncc(Cl)c(C(=O)Nc3ccc(F)cc3)n2)c1`, the AC50 is > 38 µM (inactive).
On to `CCc1ccc(S(=O)(=O)/N=C2\C=C(NS(=O)(=O)c3ccccc3)C(=O)c3ccccc32)cc1`, for which the AC50 was 4.45 µM.
On to `O=C(CCN1C(=O)/C(=C\c2ccccc2F)SC1=S)Nc1ccc(C(=O)O)c(O)c1`, for which the AC50 is 14.7 µM.
Regarding `Cc1ccc2[nH]c3c(c2c1)CN(C(=O)CN1CCSCC1)CC3`, the AC50 was > 38 µM (inactive).
Take `COc1ccc(/C=C(/C#N)C(=O)Nc2ccc(O)cc2)cc1C(=O)O`: the AC50 is > 38 µM (inactive).
Regarding `CC(=O)Oc1ccc(/C=C2/C(=O)N(c3ccccc3)N=C2C)cc1`, the AC50 is 4.09 µM.
The result for `Cc1ccc(C)c(S(=O)(=O)/N=C2\C=C(NS(=O)(=O)c3ccccc3)C(=O)c3ccccc32)c1` reads 2.79 µM; that for `CC(=O)c1c(Cl)nc2cccc3c2c1-c1ccccc1C3=O`, > 38 µM (inactive); that for `O=C1C=C(NCc2ccccc2)c2ccccc2C1=O`, 5.91 µM.
As for `COc1cc2c(cc1OC)C(c1cc(Br)ccc1F)N(C(=O)CCl)CC2` (stereo unspecified), the AC50 is 2.43 µM.
The figure for `Cc1ccc(NC(=O)c2cnc(SCC(=O)NCC3CCCO3)n(C)c2=O)cc1C` (stereo unspecified) is > 38 µM (inactive); for `O=c1[nH]cc(NCCc2ccccc2)c(=O)[nH]1` it is > 38 µM (inactive); for `CC(=O)c1ccc(OC(=O)c2cccs2)cc1` it is > 38 µM (inactive).
Regarding `Oc1ccc(N=Cc2ccc(OCc3ccccc3)cc2)cc1`, the AC50 was > 38 µM (inactive).
For `Cn1c(SCC(=O)NCc2ccc(F)cc2)nc2ccccc21`, the AC50 was > 38 µM (inactive).
The result for `CN(C)C(=O)c1ccc2c(c1[N+](=O)[O-])C(=O)c1ccccc1C2=O` reads > 12 µM (inactive).
As to `CCc1ccc(N2C(=O)C(Cl)=C(N3CCOCC3)C2=O)cc1`, the AC50 was > 38 µM (inactive).
`CCCCNC(=O)c1c(N)n(Cc2ccc3c(c2)OCO3)c2nc3ccccc3nc12`: the AC50 is 7.9 µM.
`Cc1nnc(N/N=C/c2ccccc2O)n1N`: the AC50 is 21.8 µM.
The result for `COc1ccc(C2=NN(c3ccccc3)C(=O)/C2=C\c2ccc(O)c(OC)c2)cc1` reads 3.62 µM; that for `C/C(=N\NC(=O)Cc1cc(=O)[nH][nH]1)c1cccc([N+](=O)[O-])c1`, 30.5 µM.
